Source: article PMC11240924, “Isolation, Identification, and Biological Activities of a New Chlorin e6 Derivative” (International Journal of Molecular Sciences, 2024)

Columns and labels:
[1] = test system: MIA-PaCa-2 cells; experiment: Detection of ROS with DCFH-DA after PDT; assay type: cell-based, Human; conditions: for ROS level after PDT (DCFH-DA): MIA-PaCa-2, 1, 5, 10, 20, 40, and 80 μM, 3 h, laser
Protocol: MIA-PaCa-2 cells (density: 5 × 10^3 cells/well) were seeded onto 96-well plates and incubated in a complete medium for 24 h at 37 °C. Then, the medium was replaced with a fresh culture medium containing chlorin e6 or rhodin g7 7^1-ethyl ester at different concentrations (1, 5, 10, 20, 40, and 80 μM) and then incubated for 3 h at 37 °C. After incubation, the cells were washed three times with PBS, and the cells were irradiated using a 630 nm laser at a power of 100 mW/cm^2 for 300 s. After irradiation, a fresh culture medium containing 20 μM dichlorodihydrofluorescin diacetate (DCFH-DA) was added, and the cells were incubated for another 20 min. Fluorescence detection of DCFH-DA was performed via the fluorescence microplate reader using the Spark Multimode Microplate Reader (Tecan Trading AG, Männedorf, Switzerland).

[2] = MTT cytotoxicity (PDT and dark), RAW264.7 normal cell line; assay type: cell-based, Murine; conditions: mouse, RAW264.7 cells (normal macrophage), RAW264.7 normal macrophage
Source text: (§1) B16F10 (KCLB80008), MIA PaCa-2 (KCLB21420), PANC-1 (KCLB21469), HT-29 (KCLB30038), AsPC-1 (KCLB21682), and Raw 264.7 (KCLB40071) cells were procured from the Korean Cell Line Bank (KCLB, Seoul, Republic of Korea). AsPC-1 and RAW264.7 were thawed and maintained in RPMI-1640 media (Life Technologies corporation, Carlsbad, CA, USA) supplemented with 10% fetal bovine serum (Life Technologies corporation, USA) and 1% penicillin and streptomycin (Life Technologies corporation, USA), while MIA PaCa-2, PANC-1, HT-29, and B16F10 cell lines were cultured in DMEM (Life technologies corporation, USA) containing 10% fetal bovine serum and 1% penicillin and streptomycin. All the cells were cultured at 37 °C in a 5% CO2 incubator.
(§2) After seeding B16F10 or MIA PaCa-2 at a density of 5 × 10^3 cells/well and PANC-1, HT-29, or AsPC-1 at a density of 1 × 10^4 cells/well in 96-well plates, the cells were incubated overnight at 37 °C in a CO2 incubator. The cells were exposed to different doses of either chlorin e6 or rhodin g7 7^1-ethyl ester (0, 2.5, 5, 10, 20, 40, and 80 µM) for 3 h. After the incubation, the cells were either subjected to a 660 nm laser with a power density of 50 mW (0.5 J/cm^2) or not and were further incubated for 24 h at 37 °C. Moreover, the MTT assay was used to analyze the cell viability. The absorbance values of 540 nm were then measured using a microplate reader (Multiskan GO, Thermo Fisher Scientific, Oy, Ratastie 2, FI-01620 Vantaa, Finland).

[3] = test system: PANC-1; experiment: MTT cytotoxicity (PDT and dark), PANC-1; assay type: cell-based, Human; conditions: Homo sapiens, light or radiation study, 3 h exposure, 660 nm laser 0.5 J/cm^2, MTT after 24 h
Source text: as §1, §2

[4] = MTT cytotoxicity (PDT and dark), PANC-1; assay type: cell-based, Human; conditions: human, PANC-1 cells, no illumination, MTT after 24 h
Source text: as §1, §2

[5] = test system: AsPC-1; experiment: MTT cytotoxicity (PDT and dark), AsPC-1; assay type: cell-based, Human; conditions: Homo sapiens, ASPC1, light or radiation study, 3 h exposure, 660 nm laser 0.5 J/cm^2, MTT after 24 h
Source text: as §1, §2

[6] = MTT cytotoxicity (PDT and dark), AsPC-1; assay type: cell-based, Human; conditions: human, AsPC-1 cells, no illumination, MTT after 24 h
Source text: as §1, §2

[7] = MTT cytotoxicity (PDT and dark), MIA PaCa-2; assay type: cell-based, Human; conditions: human, MIA PaCa-2 cells, no illumination, MTT after 24 h
Source text: as §1, §2

[8] = test system: MIA PaCa-2; experiment: MTT cytotoxicity (PDT and dark), MIA PaCa-2; assay type: cell-based, Human; conditions: Homo sapiens, light or radiation study, 3 h exposure, 660 nm laser 0.5 J/cm^2, MTT after 24 h
Source text: as §1, §2

[9] = test system: B16F10; experiment: MTT cytotoxicity (PDT and dark), B16F10; assay type: cell-based, Murine; conditions: Mus musculus, B16-F10, light or radiation study, 3 h exposure, 660 nm laser 0.5 J/cm^2, MTT after 24 h
Source text: as §1, §2

[10] = MTT cytotoxicity (PDT and dark), B16F10; assay type: cell-based, Murine; conditions: mouse, B16F10 cells, no illumination, MTT after 24 h
Source text: as §1, §2

[11] = Singlet oxygen photogeneration (DPBF quenching); conditions: for change of DPBF absorbance at higher doses: 5 and 10 µM
Protocol: Singlet oxygen photoregeneration was carried out using 1, 3-diphenylisobenzofuran (DPBF) in DMSO. DPBF is a selective ^1O2 acceptor that reacts with ^1O2. The sample solutions of DPBF (50 μM) which contained DPBF only (50 μM, as a control), MB (1, 5, and 10 μM), chlorin e6 (1, 5, and 10 μM), and rhodin g7 7^1-ethyl ester (1, 5, and 10 μM) were prepared under dark conditions. All of the samples were placed in a 96-well plate, which was covered with aluminum foil. The samples were then irradiated (660 nm, 50 mW, 0.5 J/cm^2) for 1 min and 40 s, and after irradiation, the visible spectra of the sample solutions were measured spectrophotometrically. The normalized absorbance of DPBF at 418 nm was measured in these samples. The ^1O2 photo-generation activities of MB, chlorin e6, and rhodin g7 7^1-ethyl ester can be compared with the different absorbance decay of each sample relative to the DPBF control sample.

[12] = 660 nm laser 0.5 J/cm^2, MTT after 24 h, read-out: IC50, PDT cytotoxicity
[13] = no illumination, MTT after 24 h, read-out: IC50, dark cytotoxicity

SMILES | ROS level after PDT (DCFH-DA) [1] | IC50 [2, 12] [µM] | IC50 [2, 13] [µM] | IC50 [3] [µM] | IC50 [4] [µM] | IC50 [5] [µM] | IC50 [6] [µM] | IC50 [7] [µM] | IC50 [8] [µM] | IC50 [9] [µM] | IC50 [10] [µM] | change of DPBF absorbance at higher doses [11] | ROS production compared to chlorin e6-PDT ([1]; MIA-PaCa-2, all concentrations (1-80 μM)) | more singlet oxygen compared to chlorin e6 alone ([11]; 1 µM) [%]
C=Cc1c(C)c2cc3nc(c(CC(=O)O)c4[nH]c(cc5nc(cc1[nH]2)C(C)=C5CC)c(C)c4C(=O)O)[C@@H](CCC(=O)O)[C@@H]3C [chlorin e6] | dose-dependent increase in ROS | 45.4 | 456 | 17.9 | 302 | 30.4 | 248 | 430 | 23.3 | 33.6 | 556 | large increase in DPBF absorbance | – | –
C=Cc1c(C)c2cc3nc(c(CC(=O)O)c4[nH]c(cc5nc(cc1[nH]2)C(C(=O)OCC)=C5CC)c(C)c4C(=O)O)[C@@H](CCC(=O)O)[C@@H]3C [rhodin g7 7^1-ethyl ester] | dose-dependent increase in ROS | 55.2 | 466 | 8.4 | 279 | 49.1 | 395 | 161 | 7.6 | 12.3 | 262 | large increase in DPBF absorbance | likely to produce more ROS than chlorin e6-PDT | 11.12
